# Measured values: patent publication US4393228A, “Epoxysuccinic acid derivatives” (Taisho Pharmaceutical Co., Ltd., priority 1977, dated 1983)
# Biological target: T1, papain (Carica papaya, UniProt P00784)
# T1 construct: purchased Sigma Chem. Co
# T1 sequence (P00784 134-345): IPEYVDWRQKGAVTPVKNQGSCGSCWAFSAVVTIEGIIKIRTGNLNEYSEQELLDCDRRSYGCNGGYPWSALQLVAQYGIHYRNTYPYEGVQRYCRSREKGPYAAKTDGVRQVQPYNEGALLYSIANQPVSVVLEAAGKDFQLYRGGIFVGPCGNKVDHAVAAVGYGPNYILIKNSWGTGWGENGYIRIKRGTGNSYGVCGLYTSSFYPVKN
# Experiment: Papain inhibitory activity (milk casein digestion)
# Format: biochemical
# Settings: papain 80 μg/ml 0.5 ml, cysteine, pH 6.8, 1% milk casein, 40° C., 10 minutes
# Description: Papain inhibitory activity of the compounds of this invention was assayed as follows: To 0.5 ml of a solution of papain (80 μg/ml, Sigma Chem. Co., 2x cry.), were added 0.25 ml of 40 mM cysteine dissolved in 20 mM disodium ethylenediamine tetraacetic acid solution adjusted pH to 6.8 with sodium hydroxide and 0.25 ml of 33 mM phosphate buffer (pH 6.8) with or without inhibitor. After incubation at 40° C. for 15 minutes, the resulting mixture was added to 5 ml of 1% milk casein solution in the same buffer as described above, and further incubated at 40° C. for 10 minutes. Then the mixture was mixed with 5 ml of 0.44 M trichloroacetic acid solution and followed by filtration with a sheet of Toyo filter paper No. 4. The extinction of the filtrate was read at 280 nm. The percent inhibition was calculated from the formula, 100 x (B-A)/B; wherein B stands for the absorbance without inhibitor and A for the absorbance with inhibitor. The compound Nos. in Table 1 are as defined in Examples as described hereinafter.
row,Structure (SMILES),ID50 (amount of inhibitor for 50% inhibition)
1,"O=C(O)[C@@H]1O[C@H]1C(=O)OCc1cccc(C(F)(F)F)c1 (relative stereo) [EP-100, 3'-trifluoromethylbenzyl potassium epoxysuccinate]",0.10 γ
2,"CCOC(=O)[C@@H](NC(=O)C1OC1C(=O)OC)[C@@H](C)O (stereo partly drawn) [EP-190, N-(3-methoxycarbonyloxirane-2-carbonyl)-L-threonine ethyl ester]",17.13 γ
3,"O=C(O)[C@@H]1O[C@H]1C(=O)OCC1CC1 (relative stereo) [EP-40, cyclopropanemethyl potassium epoxysuccinate]",0.34 γ
4,"O=C(O)[C@@H]1O[C@H]1C(=O)O[C@@H]1CCC[C@H]1Br (relative stereo) [EP-34, 2'-trans-bromocyclopentyl potassium epoxysuccinate]",0.07 γ
5,"Cc1cccc2c(COC(=O)[C@@H]3O[C@H]3C(=O)OCc3ccc(C)c4c(C)cccc34)ccc(C)c12 (relative stereo) [EP-87, di-4',5'-dimethyl-1'-naphthylmethyl epoxysuccinate]",1.58 γ
6,"CC(C)OC(=O)C1OC1C(=O)N[C@@H](CCCCNC(=O)OCc1ccccc1)C(=O)OCc1ccccc1 (stereo partly drawn) [EP-180, N^α -(3-iso-propyloxycarbonyloxirane-2-carbonyl)-N^ε -carbobenzoxy-L-lysine benzyl ester]",9.76 γ
7,"O=C(O)C1OC1C(=O)OC1CC(Cl)CCC1Br (stereo not drawn) [EP-12, 2'-cis-bromo-5'-trans-chlorocyclohexyl potassium epoxysuccinate]",0.07 γ
8,"CCOC(=O)[C@H](Cc1ccccc1)NC(=O)C1OC1C(=O)OC1CCCCC1C (stereo partly drawn) [EP-212, N-[3-(2'-cis-methylcyclohexyloxy)carbonyloxirane-2-carbonyl]-L-phenylalanine ethyl ester]",1.21 γ
9,"O=C(OCC=Cc1ccccc1)[C@H]1O[C@@H]1C(=O)OCC=Cc1ccccc1 (relative stereo) [EP-133, di-3'-phenyl-2'-propenyl epoxysuccinate]",2.81 γ
10,"O=C(OC1CCCC(Br)C1)C1OC1C(=O)OC1CCCC(Br)C1 (stereo not drawn) [EP-9, di-3'-cis-bromocyclohexyl epoxysuccinate]",2.20 γ
11,"O=C(OC1C2CC3CC(C2)CC1C3)[C@@H]1O[C@H]1C(=O)OC1C2CC3CC(C2)CC1C3 (relative stereo) [EP-37, di-2-adamantyl epoxysuccinate]",0.22 γ
12,"CCOC(=O)C1OC1C(=O)N[C@@H](CCCCNC(=O)OCc1ccccc1)C(=O)OCc1ccccc1 (stereo partly drawn) [EP-163, N^α -(3-ethoxycarbonyloxirane-2-carbonyl)-N^ε -carbobenzoxy-L-lysine benzyl ester]",29.07 γ
13,O=CNCCCC[C@H](NC(=O)C1OC1C(=O)OCc1ccccc1)C(=O)OCc1ccccc1 (some centres unmarked) [EP-171],5.80 γ
14,"O=C(O)[C@@H]1O[C@H]1C(=O)O[C@H]1CC[C@H](Cl)CC1 (relative stereo) [EP-20, 4'-trans-chlorocyclohexyl potassium epoxysuccinate]",0.06 γ
15,"O=C(OCC1CCC=CCCC1)[C@@H]1O[C@H]1C(=O)OCC1CCC=CCCC1 (relative stereo) [EP-73, di-4-cyclooctenemethyl epoxysuccinate]",0.10 γ
16,"O=C(O)[C@@H]1O[C@H]1C(=O)OCC12CC3CC(CC(C3)C1)C2 (relative stereo) [EP-48, 1-adamantanemethyl potassium epoxysuccinate]",0.08 γ
17,"O=C(O)[C@H]1O[C@@H]1C(=O)OCCc1ccccc1 (relative stereo) [EP-130, 2'-phenylethyl potassium epoxysuccinate]",0.10 γ
18,"CC(OC(=O)C1OC1C(=O)O)C1CCCC1 (centres unmarked) [EP-46, 1-cyclopentaneethyl potassium epoxysuccinate]",0.08 γ
19,"O=C(O)[C@@H]1O[C@H]1C(=O)OCC1CCCCC1 (relative stereo) [EP-42, cyclohexanemethyl potassium epoxysuccinate]",0.06 γ
20,"CCOC(=O)C1OC1C(=O)N[C@@H](CC(=O)OCc1ccccc1)C(=O)OCc1ccccc1 (stereo partly drawn) [EP-193, N-(3-ethoxycarbonyloxirane-2-carbonyl)-L-aspartic acid dibenzyl ester]",20.50 γ
21,"Cc1cc(C)cc(COC(=O)[C@@H]2O[C@H]2C(=O)OCc2cc(C)cc(C)c2)c1 (relative stereo) [EP-93, di-3',5'-dimethylbenzyl epoxysuccinate]",4.31 γ

row,Structure (SMILES),ID50 (amount of inhibitor for 50% inhibition)
1,"CCCCOC(=O)[C@H]1O[C@@H]1C(=O)O (relative stereo) [EP-142, n-butyl potassium epoxysuccinate]",0.29 γ
2,"C[C@H]1CCCC[C@H]1OC(=O)[C@@H]1O[C@H]1C(=O)O (relative stereo) [EP-4, 2'-cis-methylcyclohexyl potassium epoxysuccinate]",0.09 γ
3,"C[C@@H]1CCCC[C@H]1OC(=O)[C@@H]1O[C@H]1C(=O)O[C@@H]1CCCC[C@H]1C (relative stereo) [EP-5, di-2'-trans-methylcyclohexyl epoxysuccinate]",2.36 γ
4,"O=C(O)[C@H]1O[C@@H]1C(=O)Oc1ccccc1 (relative stereo) [EP-136, phenyl hydrogen epoxysuccinate]",2.72 γ
5,"O=C(OCc1ccc(Br)c(Cl)c1)[C@H]1O[C@@H]1C(=O)OCc1ccc(Br)c(Cl)c1 (relative stereo) [EP-125, di-3'-chloro-4'-bromobenzyl epoxysuccinate]",2.90 γ
6,"O=C(O)[C@H]1O[C@@H]1C(=O)OCc1ccc(I)cc1Br (relative stereo) [EP-120, 2'-bromo-4'-iodobenzyl potassium epoxysuccinate]",0.40 γ
7,"O=C(O[C@@H]1CCCC[C@H]1Cl)[C@@H]1O[C@H]1C(=O)O[C@@H]1CCCC[C@H]1Cl (relative stereo) [EP-7, di-2'-trans-chlorocyclohexyl epoxysuccinate]",2.25 γ
8,"O=C(OCc1ccco1)[C@@H]1O[C@H]1C(=O)OCc1ccco1 (relative stereo) [EP-77, di-2-furanmethyl epoxysuccinate]",0.77 γ
9,"O=C(O)[C@H]1O[C@@H]1C(=O)OCc1ccc(Cl)cc1Cl (relative stereo) [EP-118, 2',4'-dichlorobenzyl potassium epoxysuccinate]",0.11 γ
10,"CCOC(=O)C1OC1C(=O)N[C@@H](CCC(N)=O)C(=O)OCc1ccccc1 (stereo partly drawn) [EP-168, N-(3-ethoxycarbonyloxirane-2-carbonyl)-L-glutamine benzyl ester]",12.50 γ
11,"O=C(O)[C@@H]1O[C@H]1C(=O)OCCC1CCCC1 (relative stereo) [EP-60, 2-cyclopentaneethylpotassium epoxysuccinate]",0.10 γ
12,"O=C(O)[C@H]1O[C@@H]1C(=O)OCc1ccc(I)cc1 (relative stereo) [EP-112, p-iodobenzyl potassium epoxysuccinate]",0.32 γ
13,"O=C(O)C1OC1C(=O)OCC1CC=CCC1 (centres unmarked) [EP-70, 3-cyclohexenemethylpotassium epoxysuccinate]",0.08 γ
14,"Cc1cccc(COC(=O)C2OC2C(=O)N[C@@H](Cc2ccc(O)cc2)C(=O)OCc2ccccc2)c1 (stereo partly drawn) [EP-148, N-(3-m-methylbenzyloxycarbonyloxirane-2-carbonyl)-L-tyrosine benzyl ester]",0.70 γ
15,"CCOC(=O)C1OC1C(=O)N1CCC[C@H]1C(=O)OCc1ccccc1 (stereo partly drawn) [EP-152, N-(3-ethoxycarbonyloxirane-2-carbonyl)-L-proline benzyl ester]",48.20 γ
16,"O=C(CNC(=O)C1OC1C(=O)OC1CCCC1Cl)OCc1ccccc1 (stereo not drawn) [EP-213, N-[3-(2'-cis-chlorocyclopentyloxy)-carbonyloxirane-2-carbonyl]-glycine benzyl ester]",6.75 γ
17,"O=C(OCc1ccc2c(c1)OCO2)[C@@H]1O[C@H]1C(=O)OCc1ccc2c(c1)OCO2 (relative stereo) [EP-103, di-methylene-3',4'-dioxybenzyl epoxysuccinate]",1.06 γ
18,"Cc1ccccc1COC(=O)[C@@H]1O[C@H]1C(=O)OCc1ccccc1C (relative stereo) [EP-91, di-o-methylbenzyl epoxysuccinate]",0.35 γ
19,"O=C(NCCC[C@H](NC(=O)C1OC1C(=O)OCc1ccccc1)C(=O)OCc1ccccc1)OCc1ccccc1 (stereo partly drawn) [EP-182, N^α -(3-benzyloxycarbonyloxirane-2-carbonyl)-N^δ -carbobenzoxy-L-ornithine benzyl ester]",5.95 γ
20,"O=C(OC1CCC(Cl)C1)C1OC1C(=O)OC1CCC(Cl)C1 (stereo not drawn) [EP-29, di-3'-cis-chlorocyclopentyl epoxysuccinate]",3.12 γ
